# Assay results: patent US8715537B2, “Molecular precursor methods and materials for optoelectronics” (Precursor Energetics, Inc., priority 2009, dated 2014)
# Experiments:
# [1] = Solubility of molecular precursor in organic solvents; type: physicochemical; conditions: for Solubility: THF: solvent THF; for Solubility: benzene: solvent benzene; for Solubility: benzene / Solubility: toluene: 'heat'; for Solubility: diethyl ether: solvent diethyl ether; for Solubility: pentane: solvent pentane; for Solubility: toluene: solvent toluene; for Solubility: CHCl3: solvent CHCl3
# [2] = Thermogravimetric analysis (TGA): transition of molecular precursor into material; type: physicochemical; conditions: for TGA transition ending (completed) temperature / TGA transition midpoint: transition of precursor into material; for TGA yield for the transition: residue at end of transition; for TGA yield at 400° C.: at about 400° C.
# Protocol: Thermogravimetric analysis (TGA) was performed using a Q50 Thermogravimetric Analyzer (TA Instruments, New Castle, Del.). NMR data were recorded using a Varian 400 MHz spectrometer.
Solubility: THF [1],Solubility: benzene [1],Solubility: diethyl ether [1],Solubility: pentane [1],Solubility: toluene [1],TGA transition ending (completed) temperature [2],TGA yield for the transition [2],Solubility: CHCl3 [1],TGA transition midpoint [2] [°C],TGA yield at 400° C. [2],Substance
ss,ss heat,nil,nil,heat,about 192 °C,53.1 % (w/w),–,–,–,Cu—(Se^tBu)3In^tBu [Example 7]
–,–,–,–,–,about 195 °C,54.9 % (w/w),–,–,–,Ag—(Se^tBu)3In^sBu [Example 26]
–,ss heat,nil,nil,s heat,about 210 °C,48.3 % (w/w),–,–,–,Cu—(Se^tBu)3Ga^tBu [Example 5]
vs,vs,vs,–,vs,248 °C,50.4 % (w/w),vs,235,–,Cu—(S^tBu)3In^nBu [Example 2]
vs,vs,vs,–,vs,196 °C,48.5 % (w/w),vs,174,–,Cu—(Se^tBu)3In^nBu [Example 3]
–,–,–,–,–,about 205 °C,54.6 % (w/w),–,–,52.5 % (w/w),Ag—(Se^tBu)3In^nBu [Example 24]
–,–,–,–,–,220 °C,46.0 % (w/w),–,–,–,Cu—(S^tBu)3Ga^iPr [Example 12]
–,–,–,–,–,295 °C,47.9 % (w/w),–,235,–,Cu—(S^tBu)2(S^tBu)In^tBu [Example 9]
–,–,–,–,–,about 205 °C,56.2 % (w/w),–,–,–,Ag—(Se^tBu)3In^iPr [Example 28]
ss,ss heat,nil,nil,s heat,about 240 °C,48.1 % (w/w),–,–,–,Cu—(S^tBu)3In^tBu [Example 4]
–,–,–,–,–,204 °C,52.3 % (w/w),–,191,–,Cu—(Se^tBu)3In^sBu [Example 14]
–,–,–,–,–,about 195 °C,50.4 % (w/w),–,–,45.1 % (w/w),Ag—(Se^tBu)3Ga^sBu [Example 27]
–,–,–,–,–,about 210 °C,53.9 % (w/w),–,–,47.7 % (w/w),Ag—(Se^tBu)3Ga^nBu [Example 25]
–,heat,ss,nil,–,199 °C,52.1 % (w/w),–,192,–,Cu—(Se^tBu)3In^iPr [Example 8]

Substance,Solubility: THF [1],Solubility: benzene [1],Solubility: diethyl ether [1],Solubility: pentane [1],Solubility: toluene [1],TGA transition ending (completed) temperature [2],TGA yield for the transition [2],Solubility: CHCl3 [1],TGA transition midpoint [2] [°C],TGA yield at 400° C. [2]
Cu—(S^tBu)3In^iPr [Example 1],–,s heat,ss,nil,–,227 °C,50.4 % (w/w),–,220,–
